In PMC7305236, “The atypical chemokine receptor ACKR3/CXCR7 is a broad-spectrum scavenger for opioid peptides” (Nature Communications, 2020):
Read-outs that look alike come from different tables or passages of the source.

Assays:
ACKR3 [1] = biological target: T1, ACKR3 (Homo sapiens, UniProt P25106); assay type: cell-based; set-up: expressed in transfected cells; conditions: 100 nM
U87 ACKR3 = biological target: T2, U87 ACKR3 (Homo sapiens, UniProt P25106); experiment: Figure 6c source data, U87 ACKR3; assay type: cell-based; conditions: Figure 6c inset, U87 ACKR3 + labelled peptide, titrated agonist not given
T2 construct: expressed in transfected cells
T2 sequence (P25106 whole entry): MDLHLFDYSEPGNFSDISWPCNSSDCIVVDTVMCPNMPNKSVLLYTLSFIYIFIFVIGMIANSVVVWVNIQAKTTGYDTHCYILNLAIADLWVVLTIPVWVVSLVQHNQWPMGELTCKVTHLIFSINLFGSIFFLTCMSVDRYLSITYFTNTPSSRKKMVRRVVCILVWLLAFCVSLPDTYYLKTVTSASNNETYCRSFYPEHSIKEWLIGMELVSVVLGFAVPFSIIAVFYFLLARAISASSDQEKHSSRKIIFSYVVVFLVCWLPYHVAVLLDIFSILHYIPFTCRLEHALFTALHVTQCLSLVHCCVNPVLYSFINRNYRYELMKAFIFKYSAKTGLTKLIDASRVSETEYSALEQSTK

NOP = NOP (Homo sapiens, UniProt P41146); experiment: Activity of ligands towards NOP (source data Fig 4a, 4c); assay type: cell-based; conditions: 100 nM
NOP, sequence (P41146 whole entry): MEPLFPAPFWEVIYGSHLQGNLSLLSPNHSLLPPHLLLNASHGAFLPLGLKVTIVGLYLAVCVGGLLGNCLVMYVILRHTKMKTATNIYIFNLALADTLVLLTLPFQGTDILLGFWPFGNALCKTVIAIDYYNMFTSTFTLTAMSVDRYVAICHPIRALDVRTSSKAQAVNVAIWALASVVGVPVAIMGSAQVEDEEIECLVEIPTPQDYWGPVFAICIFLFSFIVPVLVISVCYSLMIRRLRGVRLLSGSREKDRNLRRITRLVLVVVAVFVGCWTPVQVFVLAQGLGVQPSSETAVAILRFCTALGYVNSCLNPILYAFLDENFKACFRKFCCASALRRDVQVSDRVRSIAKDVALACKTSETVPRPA

KOR [2] = biological target: T3, KOR (Homo sapiens, UniProt P41145); assay type: cell-based; set-up: expressed in transfected cells; host or cells: U87 (human glioblastoma), transient co-transfection; conditions: 100 nM
T3 sequence (P41145 whole entry): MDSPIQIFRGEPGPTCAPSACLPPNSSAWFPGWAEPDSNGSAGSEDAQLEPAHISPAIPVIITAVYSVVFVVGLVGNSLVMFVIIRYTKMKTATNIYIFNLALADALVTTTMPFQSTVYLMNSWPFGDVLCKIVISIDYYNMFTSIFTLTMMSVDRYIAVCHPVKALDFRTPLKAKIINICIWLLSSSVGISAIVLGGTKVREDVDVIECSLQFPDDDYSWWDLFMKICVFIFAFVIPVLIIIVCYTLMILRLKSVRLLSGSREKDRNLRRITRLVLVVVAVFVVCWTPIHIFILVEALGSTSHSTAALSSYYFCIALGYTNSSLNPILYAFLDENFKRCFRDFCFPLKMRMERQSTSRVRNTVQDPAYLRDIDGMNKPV

DOR = biological target: T4, DOR (Homo sapiens, UniProt P41143); assay type: cell-based; conditions: 100 nM
T4 construct: expressed in transfected cells; host or cells: U87 (human glioblastoma)
T4 sequence (P41143 whole entry): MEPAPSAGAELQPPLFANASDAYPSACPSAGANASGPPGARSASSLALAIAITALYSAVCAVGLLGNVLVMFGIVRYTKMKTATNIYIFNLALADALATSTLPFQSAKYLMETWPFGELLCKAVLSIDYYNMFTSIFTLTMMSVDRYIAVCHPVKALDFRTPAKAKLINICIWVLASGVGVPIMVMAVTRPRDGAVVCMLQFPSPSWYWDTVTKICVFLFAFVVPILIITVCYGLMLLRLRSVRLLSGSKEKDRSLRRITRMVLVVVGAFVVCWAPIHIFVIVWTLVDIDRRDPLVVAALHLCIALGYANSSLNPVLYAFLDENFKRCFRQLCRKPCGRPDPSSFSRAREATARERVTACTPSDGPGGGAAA

CCR1 = biological target: T5, CCR1 (Homo sapiens, UniProt P32246); experiment: Figure S2a opioid peptide screen on chemokine receptors; assay type: cell-based; set-up: dose or concentration left out as unconfirmed; conditions: replicate 1, read-out: CCR1 activity, ctrl+ = 100
T5 construct: expressed in transfected cells
T5 sequence (P32246 1-355): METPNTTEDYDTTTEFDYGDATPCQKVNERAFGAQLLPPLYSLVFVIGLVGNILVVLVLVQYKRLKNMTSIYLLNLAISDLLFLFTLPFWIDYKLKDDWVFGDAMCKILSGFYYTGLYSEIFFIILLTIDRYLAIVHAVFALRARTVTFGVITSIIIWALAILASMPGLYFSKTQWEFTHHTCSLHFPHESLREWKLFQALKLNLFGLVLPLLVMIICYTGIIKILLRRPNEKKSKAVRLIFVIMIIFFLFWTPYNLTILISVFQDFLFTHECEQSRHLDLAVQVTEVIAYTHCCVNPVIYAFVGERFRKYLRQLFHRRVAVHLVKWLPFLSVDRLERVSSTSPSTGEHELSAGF

CCR3 = biological target: T6, CCR3 (Homo sapiens, UniProt P51677); experiment: as above; set-up: dose or concentration left out as unconfirmed; conditions: read-out: CCR3 activity, ctrl+ = 100, Figure S2a
T6 sequence (P51677 1-355): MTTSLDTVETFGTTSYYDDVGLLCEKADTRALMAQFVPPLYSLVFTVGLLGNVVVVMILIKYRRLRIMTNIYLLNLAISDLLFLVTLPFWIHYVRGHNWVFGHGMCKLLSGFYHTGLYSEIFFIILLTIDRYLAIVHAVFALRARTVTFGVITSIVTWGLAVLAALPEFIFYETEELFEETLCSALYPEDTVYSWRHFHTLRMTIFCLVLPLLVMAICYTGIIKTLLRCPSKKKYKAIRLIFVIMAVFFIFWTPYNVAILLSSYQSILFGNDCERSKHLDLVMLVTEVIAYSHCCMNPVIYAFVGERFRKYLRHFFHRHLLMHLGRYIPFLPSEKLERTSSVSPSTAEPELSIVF

CXCR3A = biological target: T7, CXCR3A (Homo sapiens, UniProt P49682); experiment: as above; assay type: cell-based; set-up: dose or concentration left out as unconfirmed; conditions: replicate 1, read-out: CXCR3A activity, ctrl+ = 100
T7 construct: expressed in transfected cells; host or cells: U87 cells
T7 sequence (P49682 1-368): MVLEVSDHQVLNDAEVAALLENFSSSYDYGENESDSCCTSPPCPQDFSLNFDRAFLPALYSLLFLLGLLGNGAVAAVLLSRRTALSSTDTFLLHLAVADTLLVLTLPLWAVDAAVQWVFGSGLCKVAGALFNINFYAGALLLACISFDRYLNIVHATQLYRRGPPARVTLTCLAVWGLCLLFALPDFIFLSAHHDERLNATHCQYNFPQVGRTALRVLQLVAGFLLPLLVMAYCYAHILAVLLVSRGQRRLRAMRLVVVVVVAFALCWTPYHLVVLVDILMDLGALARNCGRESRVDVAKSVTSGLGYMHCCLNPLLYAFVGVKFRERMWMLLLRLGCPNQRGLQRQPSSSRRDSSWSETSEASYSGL

ACKR2 = biological target: T8, ACKR2 (Homo sapiens, UniProt O00590); experiment: as above; assay type: cell-based; set-up: dose or concentration left out as unconfirmed; conditions: replicate 2, read-out: ACKR2 activity, ctrl+ = 100
T8 construct: expressed in transfected cells; host or cells: U87 cells (human glioblastoma)
T8 sequence (O00590 1-384): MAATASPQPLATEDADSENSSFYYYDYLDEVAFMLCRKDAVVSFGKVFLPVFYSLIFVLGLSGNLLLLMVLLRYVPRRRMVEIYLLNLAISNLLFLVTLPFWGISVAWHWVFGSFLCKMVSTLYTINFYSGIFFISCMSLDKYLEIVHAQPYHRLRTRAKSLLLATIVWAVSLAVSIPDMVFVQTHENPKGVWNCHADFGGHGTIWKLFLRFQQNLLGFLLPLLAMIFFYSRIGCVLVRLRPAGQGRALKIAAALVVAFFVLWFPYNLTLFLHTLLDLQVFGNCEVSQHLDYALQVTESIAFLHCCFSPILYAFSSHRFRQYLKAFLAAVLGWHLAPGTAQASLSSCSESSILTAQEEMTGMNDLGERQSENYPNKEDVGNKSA

ACKR3 [3] = biological target: T1, ACKR3; experiment: cell-based; set-up: dose or concentration left out as unconfirmed; conditions: read-out: ACKR3 activity, ctrl+ = 100, Figure S2a; replicate 2
CCR6 = biological target: T9, CCR6 (Homo sapiens, UniProt P51684); experiment: Figure S2a opioid peptide screen on chemokine receptors; assay type: cell-based; set-up: dose or concentration left out as unconfirmed; conditions: replicate 1, read-out: CCR6 activity, ctrl+ = 100
T9 construct: expressed in transfected cells
T9 sequence (P51684 1-374): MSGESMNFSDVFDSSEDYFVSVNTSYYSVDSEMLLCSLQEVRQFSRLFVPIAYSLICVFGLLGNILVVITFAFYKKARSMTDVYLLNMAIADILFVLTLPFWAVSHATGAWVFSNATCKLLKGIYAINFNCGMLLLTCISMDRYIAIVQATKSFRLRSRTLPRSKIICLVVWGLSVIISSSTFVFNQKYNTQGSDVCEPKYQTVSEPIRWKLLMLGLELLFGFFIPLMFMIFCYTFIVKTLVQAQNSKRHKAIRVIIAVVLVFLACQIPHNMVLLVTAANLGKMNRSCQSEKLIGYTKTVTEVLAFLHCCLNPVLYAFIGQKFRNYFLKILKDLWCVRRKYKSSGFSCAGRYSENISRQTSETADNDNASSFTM

CXCR4 = biological target: T10, CXCR4 (Homo sapiens, UniProt P61073); assay type: cell-based
T10 construct: expressed in transfected cells; host or cells: U87, transient cotransfection of pNBe vectors
T10 sequence (P61073 whole entry): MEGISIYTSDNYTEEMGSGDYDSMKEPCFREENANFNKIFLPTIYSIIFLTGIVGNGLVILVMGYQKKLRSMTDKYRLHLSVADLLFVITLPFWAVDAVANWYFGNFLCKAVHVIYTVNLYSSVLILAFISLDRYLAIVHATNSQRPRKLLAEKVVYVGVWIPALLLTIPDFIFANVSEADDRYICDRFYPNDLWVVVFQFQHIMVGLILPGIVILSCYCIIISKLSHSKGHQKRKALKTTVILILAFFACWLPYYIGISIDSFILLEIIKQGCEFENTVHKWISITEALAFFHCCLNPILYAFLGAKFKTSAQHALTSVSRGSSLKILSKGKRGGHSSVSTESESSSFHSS

CXCR7 = biological target: T11, CXCR7 (Homo sapiens, UniProt P25106); experiment: Figure S1a: screen of opioid peptides on CXCR7; assay type: cell-based
T11 construct: expressed in transfected cells; host or cells: U87 cells
T11 sequence (P25106 whole entry): as the sequence (P25106 whole entry) above

KOR [4] = biological target: T3, KOR; experiment: Figure 6h, KOR, DMSO vs Bafilomycin treatment; assay type: cell-based; set-up: expressed in transfected cells; host or cells: U87 (human glioblastoma); conditions: n = 3 or 4 as in cell
ACKR = biological target: T12, ACKR (Homo sapiens, UniProt P25106); experiment: Figure 6h, ACKR, DMSO vs Bafilomycin treatment; assay type: cell-based; conditions: n = 3 or 4 as in cell
T12 construct: expressed in transfected cells; host or cells: U87 cells (human glioblastoma)
T12 sequence (P25106 whole entry): as above

[5] = 'DMSO vs Bafilomycin treatment'
[6] = first of two columns under 'DMSO vs Bafilomycin treatment' (presumably DMSO)

T1 sequence (P25106 whole entry): as above

Buprenorphine
ACKR3 activity, Fig 4a (ACKR3 [1]; replicate 1): -5.792
ACKR3 activity, Fig 4a (ACKR3 [1]; replicate 2): 26.4917
ACKR3 activity, Fig 4a (ACKR3 [1]; replicate 3): -14.8896

H-MRRKFGGF-NH2 [LIH inverse]
EC50 (U87 ACKR3; replicate 1): 64.8 nM
EC50 (U87 ACKR3; replicate 2): 119 nM
EC50 (U87 ACKR3; replicate 3): 112 nM
EC50 (U87 ACKR3; replicate 4): 71.7 nM

C=CCN1CC[C@]23CCCC[C@H]2[C@H]1Cc1ccc(O)cc13 [Levallorphan]
NOP activity, Fig 4a (NOP; replicate 1): 19.6254
NOP activity, Fig 4a (NOP; replicate 2): -2.413
NOP activity, Fig 4a (NOP; replicate 3): -13.909
ACKR3 activity, Fig 4a (ACKR3 [1]; replicate 1): 29.7947
ACKR3 activity, Fig 4a (ACKR3 [1]; replicate 2): -20.4867
ACKR3 activity, Fig 4a (ACKR3 [1]; replicate 3): -0.5025
KOR activity, Fig 4a (KOR [2]; replicate 1): -79.0502
KOR activity, Fig 4a (KOR [2]; replicate 2): -66.9071
KOR activity, Fig 4a (KOR [2]; replicate 3): -81.2861
DOR activity, Fig 4a (DOR; replicate 1): -48.6722
DOR activity, Fig 4a (DOR; replicate 2): -49.4812
DOR activity, Fig 4a (DOR; replicate 3): -45.6651

CC[C@H](C)[C@H](NC(=O)[C@H](C)NC(=O)[C@H](CC(N)=O)NC(=O)[C@H](CCCCN)NC(=O)[C@H](Cc1ccccc1)NC(=O)[C@H](CC(C)C)NC(=O)[C@@H](NC(=O)[C@@H](NC(=O)[C@H](CC(C)C)NC(=O)[C@@H]1CCCN1C(=O)[C@@H](NC(=O)[C@H](CCC(N)=O)NC(=O)[C@H](CO)NC(=O)[C@H](CCCCN)NC(=O)[C@H](CCC(=O)O)NC(=O)[C@H](CO)NC(=O)[C@@H](NC(=O)[C@H](CCSC)NC(=O)[C@H](Cc1ccccc1)NC(=O)CNC(=O)CNC(=O)[C@@H](N)Cc1ccc(O)cc1)[C@@H](C)O)[C@@H](C)O)C(C)C)[C@@H](C)O)C(=O)N[C@H](C(=O)N[C@@H](CCCCN)C(=O)N[C@@H](CC(N)=O)C(=O)N[C@@H](C)C(=O)N[C@@H](Cc1ccc(O)cc1)C(=O)N[C@@H](CCCCN)C(=O)N[C@@H](CCCCN)C(=O)NCC(=O)N[C@@H](CCC(=O)O)C(=O)O)[C@@H](C)CC [-endorphin]
activation (CCR1): 6.2%
activation (CCR3; replicate 1): 5.63%
activation (CCR3; replicate 2): 8.01%
activation (CXCR3A): 2.35%
activation (ACKR2): 16.8%
activation (ACKR3 [3]): 3.39%
activation (CCR6): 1.21%

Oc1ccc2c3c1O[C@H]1c4[nH]c5c(c4C[C@@]4(O)[C@@H](C2)N(CC2CC2)CC[C@]314)C[C@@]1(O)[C@H]2Cc3ccc(O)c4c3[C@@]1(CCN2CC1CC1)[C@H]5O4 [nor-Binaltrophimine]
NOP activity, Fig 4a (NOP; replicate 1): 13.2975
NOP activity, Fig 4a (NOP; replicate 2): 23.1448
NOP activity, Fig 4a (NOP; replicate 3): -11.7109
ACKR3 activity, Fig 4a (ACKR3 [1]; replicate 1): 6.23
ACKR3 activity, Fig 4a (ACKR3 [1]; replicate 2): 7.454
ACKR3 activity, Fig 4a (ACKR3 [1]; replicate 3): 1.2819

c1cc(CN2CCCNCCNCCCNCC2)ccc1CN1CCCNCCNCCCNCC1 [AMD3100]
Figure S1a value, CXCR4 (CXCR4; replicate 1): -2.401
Figure S1a value, CXCR4 (CXCR4; replicate 2): 38.4908

C=CCN1CC[C@]23c4c5ccc(O)c4O[C@H]2C(=O)CC[C@@]3(O)[C@H]1C5 [Naloxone]
ACKR3 activity, Fig 4a (ACKR3 [1]; replicate 1): -16.5596
ACKR3 activity, Fig 4a (ACKR3 [1]; replicate 2): -16.7812
ACKR3 activity, Fig 4a (ACKR3 [1]; replicate 3): -9.5257

CXCL11
Figure S1a value, CXCR4 (CXCR4; replicate 1): 49.1082
Figure S1a value, CXCR4 (CXCR4; replicate 2): 78.3882
Figure S1a value, CXCR7 (CXCR7; replicate 1): 84.3234
Figure S1a value, CXCR7 (CXCR7; replicate 2): 115.296

Oc1ccc2c3c1O[C@H]1c4[nH]c5ccccc5c4C[C@@]4(O)[C@@H](C2)N(CC2CC2)CC[C@]314 [Naltrindole]
ACKR3 activity, Fig 4a (ACKR3 [1]; replicate 1): 7.799
ACKR3 activity, Fig 4a (ACKR3 [1]; replicate 2): 7.647
ACKR3 activity, Fig 4a (ACKR3 [1]; replicate 3): 1.281

CSCC[C@H](NC(=O)[C@H](Cc1ccccc1)NC(=O)CNC(=O)CNC(=O)[C@@H](N)Cc1ccccc1)C(=O)N[C@@H](CCCNC(=N)N)C(=O)N[C@@H](CCCNC(=N)N)C(=O)N[C@@H](CCCCN)C(N)=O [LIH383]
Mean ± SEM (Figure 6h, KOR) (KOR [4]; [5]): 102,6 ± 3,011, n=3
Mean ± SEM (Figure 6h, KOR) (KOR [4]; [6]): 99,75 ± 4,761, n=3
Mean ± SEM (Figure 6h, ACKR) (ACKR; [5]): 25,99 ± 1,65, n=3
Mean ± SEM (Figure 6h, ACKR) (ACKR; [6]): 41,87 ± 2,846, n=3
